Laboratory results: US20240215582A1, “METHODS OF CONTROLLING PLANT PATHOGENS” (Valent BioSciences LLC, priority 2022, published 2024)

Test system: Pseudoperonospora cubensis
Assay: Foliar application, inoculated plants, disease severity
Details: for Disease severity P. cubensis Oct. 20, 2020: carrier control severity 70; for Disease severity P. cubensis Oct. 27, 2020: carrier control severity 79; for Disease severity P. cubensis Jul. 28, 2020: carrier control severity 67
[1] = 1 ppm foliar, vs carrier control
[2] = 3 ppm foliar, vs carrier control
[3] = 6 ppm foliar, vs carrier control
[4] = 12 ppm foliar, vs carrier control
[5] = 25 ppm foliar, vs carrier control
[6] = 30 ppm foliar, vs carrier control
[7] = 50 ppm foliar, vs carrier control

Protocol: Biological efficacy assays utilizing cervinomycins were conducted on Pseudoperonospora cubensis and Botrytis cinerea. […] Once plants had dried they were inoculated with the pathogen, then were stored in a controlled climate chamber under high humidity for 4-6 days. At the end of the experiment disease severity was determined based on the percentage of plant tissue that was visually symptomatic.

COc1cc2oc3c(c(=O)c2cc1OC)C(=O)c1c(ccc2cc4c(c(O)c12)C(=O)N1CCOC1(C)C4)C3=O (stereo not drawn) [Cervinomycin A2, cervinomycin A2]
Disease severity P. cubensis Oct. 20, 2020 (1 ppm foliar): 52%
Disease severity P. cubensis Oct. 27, 2020 (1 ppm foliar): 7%
percent control P. cubensis Oct. 20, 2020 [1]: (26%)
percent control P. cubensis Oct. 27, 2020 [1]: 91%
Disease severity P. cubensis Oct. 20, 2020 (3 ppm foliar): 27%
Disease severity P. cubensis Oct. 27, 2020 (3 ppm foliar): 7%
percent control P. cubensis Oct. 20, 2020 [2]: (61%)
percent control P. cubensis Oct. 27, 2020 [2]: 91%
Disease severity P. cubensis Oct. 20, 2020 (6 ppm foliar): 16%
Disease severity P. cubensis Oct. 27, 2020 (6 ppm foliar): 2%
percent control P. cubensis Oct. 20, 2020 [3]: (77%)
percent control P. cubensis Oct. 27, 2020 [3]: 98%
Disease severity P. cubensis Oct. 20, 2020 (12 ppm foliar): 3%
Disease severity P. cubensis Oct. 27, 2020 (12 ppm foliar): 1%
percent control P. cubensis Oct. 20, 2020 [4]: (95%)
percent control P. cubensis Oct. 27, 2020 [4]: 99%
Disease severity P. cubensis Jul. 28, 2020 (15 ppm foliar): 28%
percent control P. cubensis Jul. 28, 2020 (15 ppm foliar, vs carrier control): 58%
Disease severity P. cubensis Oct. 20, 2020 (25 ppm foliar): 4%
Disease severity P. cubensis Oct. 27, 2020 (25 ppm foliar): 1%
percent control P. cubensis Oct. 20, 2020 [5]: (94%)
percent control P. cubensis Oct. 27, 2020 [5]: 99%
Disease severity P. cubensis Jul. 28, 2020 (30 ppm foliar): 10%
Disease severity P. cubensis Jul. 14, 2020 (30 ppm foliar, carrier control severity 98): 73%
percent control P. cubensis Jul. 14, 2020 [6]: 26%
percent control P. cubensis Jul. 28, 2020 [6]: 85%
Disease severity P. cubensis Oct. 20, 2020 (50 ppm foliar): 7%
Disease severity P. cubensis Oct. 27, 2020 (50 ppm foliar): 2%
percent control P. cubensis Oct. 20, 2020 [7]: (89%)
percent control P. cubensis Oct. 27, 2020 [7]: 98%
Disease severity P. cubensis Jul. 28, 2020 (60 ppm foliar): 18%
percent control P. cubensis Jul. 28, 2020 (60 ppm foliar, vs carrier control): 73%
control of Pseudoperonospora cubensis (summary of Table 3) (foliar application): significant control
